From US20060194837A1, “Tetrahydroisoquinoline compounds” (priority 2004, published 2006)
Read-outs that look alike come from different tables or passages of the source.

Experiments:
human H3 receptor [1] = molecular target: T1, human H3 receptor (Homo sapiens, UniProt Q9Y5N1); assay: H3 receptor binding (N-[3H]-α-methylhistamine displacement); details: membranes of SK-N-MC cells expressing cloned human H3 receptor, 0.8 nM N-[3H]-α-methylhistamine, 60 min at 25° C.
T1 construct: expressed in transfected cells

Rat SERT = molecular target: T2, Rat SERT (Rattus norvegicus, UniProt P31652); assay: Rat brain SERT binding ([3H]-citalopram displacement); details: rat brain membranes without cerebellum, 0.6 nM [3H]-citalopram, 60 min at 25° C.
T2 construct: A rat brain without cerebellum (Zivic Laboratories, Inc.—Pittsburgh, Pa.) was homogenized; tissue Zivic Laboratories, Inc; host or cells: rat brain without cerebellum, membranes
Description: The supernatant was removed and re-centrifuged at 15,000 rpm for 30 min. […] Membranes were incubated with 0.6 nM [^3H]-Citalopram plus/minus test compounds for 60 min at 25° C. and harvested by rapid filtration over GF/C glass fiber filters (pretreated with 0.3% polyethylenimine) followed by four washes with ice-cold buffer.

human SERT = molecular target: T3, human SERT (Homo sapiens, UniProt P31645); assay: Human SERT binding (3H-citalopram displacement); details: HEK293 membranes expressing human SERT, rt 1 h
T3 construct: expressed in transfected cells; host or cells: HEK293 membranes
Description: Homogenized HEK293 (Human Embryonic Kidney) membranes expressing the human SERT were incubated with ^3H-citalopram (SERT) at rt for 1 h in 50 mM Tris, 120 mM NaCl, 5 mM KCl (pH 7.4). […] The membranes were washed and the radioactivity was counted as above.

human H3 receptor [2] = molecular target: T1, human H3 receptor; assay: Cyclic AMP accumulation (β-galactosidase reporter, Schild analysis); type: cell-based; details: histamine agonist, forskolin 5 μM, Schild regression of pEC50 values
Description: Sublines of SK-N-MC cells were created that expressed a reporter construct and the human H3 receptor. The reporter gene (β-galactosidase) is under the control of multiple cyclic AMP responsive elements. In 96-well plates, histamine was added directly to the cell media followed 5 min later by an addition of forskolin (5 μM final concentration). When appropriate, antagonists were added 10 min prior to agonist addition. After a 6-h incubation at 37° C., the media was aspirated and the cells washed with 200 μL of phosphate-buffered saline followed by a second aspiration. Cells were lysed with 25 μL 0.1× assay buffer (10 mM Na-phosphate, pH 8, 0.2 mM MgSO4, 0.01 mM MnCl2) and incubated at rt for 10 min. […] Color was developed using 25 μL of 1 mg/mL substrate solution (chlorophenolred β-D galactopyranoside; Roche Molecular Biochemicals, Indianapolis, In.).

[3] = SK-N-MC cells expressing human H3 receptor and CRE-β-galactosidase reporter, read-out: pA2 (converted)
[4] = pA2, SK-N-MC cells expressing human H3 receptor and CRE-β-galactosidase reporter

T1 sequence (Q9Y5N1 whole entry): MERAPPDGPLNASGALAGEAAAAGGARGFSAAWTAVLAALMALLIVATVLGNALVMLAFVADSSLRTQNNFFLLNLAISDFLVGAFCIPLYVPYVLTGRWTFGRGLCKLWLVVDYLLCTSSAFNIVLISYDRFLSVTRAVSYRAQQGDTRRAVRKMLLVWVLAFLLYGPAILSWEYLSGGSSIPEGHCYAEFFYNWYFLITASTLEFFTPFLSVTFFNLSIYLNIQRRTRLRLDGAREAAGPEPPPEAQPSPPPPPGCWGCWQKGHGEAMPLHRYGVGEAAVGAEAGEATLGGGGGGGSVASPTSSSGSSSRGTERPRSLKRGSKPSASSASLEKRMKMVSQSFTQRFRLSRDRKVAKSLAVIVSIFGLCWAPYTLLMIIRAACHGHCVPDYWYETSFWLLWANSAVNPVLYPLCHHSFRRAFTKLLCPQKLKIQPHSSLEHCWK
T3 sequence (P31645 whole entry): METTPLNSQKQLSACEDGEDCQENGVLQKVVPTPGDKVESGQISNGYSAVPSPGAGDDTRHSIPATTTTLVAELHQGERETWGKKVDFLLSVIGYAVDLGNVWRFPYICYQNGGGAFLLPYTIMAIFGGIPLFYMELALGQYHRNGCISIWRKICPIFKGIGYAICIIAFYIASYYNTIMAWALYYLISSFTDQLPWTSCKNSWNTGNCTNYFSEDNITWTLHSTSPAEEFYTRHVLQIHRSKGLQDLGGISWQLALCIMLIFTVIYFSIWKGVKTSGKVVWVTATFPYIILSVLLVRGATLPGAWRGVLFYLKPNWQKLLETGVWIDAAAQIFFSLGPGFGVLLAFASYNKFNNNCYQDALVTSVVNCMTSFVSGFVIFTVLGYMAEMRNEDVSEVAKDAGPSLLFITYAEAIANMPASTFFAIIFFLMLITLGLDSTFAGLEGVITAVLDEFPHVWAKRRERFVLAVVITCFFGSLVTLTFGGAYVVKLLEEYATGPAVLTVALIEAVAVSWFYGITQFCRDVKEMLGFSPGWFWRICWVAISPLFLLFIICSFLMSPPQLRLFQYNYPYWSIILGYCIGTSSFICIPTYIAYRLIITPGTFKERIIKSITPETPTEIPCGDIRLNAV
T2 sequence (P31652 whole entry): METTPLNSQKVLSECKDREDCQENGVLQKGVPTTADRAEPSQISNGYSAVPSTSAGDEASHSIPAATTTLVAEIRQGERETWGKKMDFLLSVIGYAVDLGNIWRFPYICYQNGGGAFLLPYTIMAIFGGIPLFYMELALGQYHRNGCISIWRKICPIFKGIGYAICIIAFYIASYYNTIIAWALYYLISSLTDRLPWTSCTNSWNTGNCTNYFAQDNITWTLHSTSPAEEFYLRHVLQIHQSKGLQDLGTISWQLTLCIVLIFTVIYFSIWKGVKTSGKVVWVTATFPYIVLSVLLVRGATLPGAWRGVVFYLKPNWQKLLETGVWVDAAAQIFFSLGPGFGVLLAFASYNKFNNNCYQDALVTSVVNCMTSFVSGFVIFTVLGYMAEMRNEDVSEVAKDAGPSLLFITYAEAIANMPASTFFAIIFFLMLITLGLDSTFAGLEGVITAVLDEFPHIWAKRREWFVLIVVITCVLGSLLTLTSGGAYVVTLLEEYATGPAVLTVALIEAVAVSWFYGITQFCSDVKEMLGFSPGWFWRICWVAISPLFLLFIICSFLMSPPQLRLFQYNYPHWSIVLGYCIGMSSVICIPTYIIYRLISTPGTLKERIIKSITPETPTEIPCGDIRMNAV

Row | Structure (SMILES) | Ki (human H3 receptor [1]) | Ki (Rat SERT; read-out: Rat SERT Ki) | Ki (human SERT) | Kb (human H3 receptor [2]; [3]) | Kb (human H3 receptor [2]; [4]) | Ki (Rat SERT; Rat SERT Ki (nM))
1 | c1cncc(C2CNCc3cc(CCCCN4CCCCC4)ccc32)c1 (stereo not drawn) [Example 272, 7-(4-Piperidin-1-yl-butyl)-4-pyridin-3-yl-1,2,3,4-tetrahydro-isoquinoline] | 3 nM | 540 nM | 3000 nM | 3.16 nM |  | 
2 | CCN(CC)CCCOc1ccc2c(c1)CN(C)CC2c1ccc(OC)cc1 (stereo not drawn) [Example 3, Diethyl-{3-[4-(4-methoxy-phenyl)-2-methyl-1,2,3,4-tetrahydro-isoquinolin-7-yloxy]-propyl}-amine] | 0.7 nM | 3 nM | 4 nM |  | 0.398 nM | 
3 | C(#Cc1ccc2c(c1)CNCC2c1cccnc1)CCN1CCCCC1 (stereo not drawn) [Example 271, 7-(4-Piperidin-1-yl-but-1-ynyl)-4-pyridin-3-yl-1,2,3,4-tetrahydro-isoquinoline] | 0.7 nM | 413 nM | 3000 nM | 0.251 nM |  | 
4 | COc1ccc(C2CN(C)Cc3cc(OCCCN4CCCC(O)C4)ccc32)cc1 (mixture of isomers) [Example 20, 1-{3-[4-(4-Methoxy-phenyl)-2-methyl-1,2,3,4-tetrahydro-isoquinolin-7-yloxy]-propyl}-piperidin-3-ol] | 2 nM | 4 nM | 3 nM | 1 nM |  | 
5 | COc1cccc(C2CN(C)Cc3cc(OCCCN4CCC(F)CC4)ccc32)c1 (single isomer, unassigned) [Example 45B, 7-[3-(4-Fluoro-piperidin-1-yl)-propoxy]-4-(3-methoxyphenyl)-2-methyl-1,2,3,4-tetrahydro-isoquinoline] | 3 nM | 5 nM | 6 nM | 0.794 nM |  | 
6 | COc1ccc(C2CN(C)Cc3cc(OCCCN4CCC(C#N)CC4)ccc32)cc1 (racemic) [Example 37, 1-{3-[4-(4-Methoxy-phenyl)-2-methyl-1,2,3,4-tetrahydro-isoquinolin-7-yloxy]-propyl}-piperidine-4-carbonitrile] | 9 nM | 8 nM | 6 nM | 6.31 nM |  | 
7 | CN1Cc2cc(OCCCN3CCOCC3)ccc2C(c2ccc(Cl)c(Cl)c2)C1 (stereo not drawn) [Example 77, 4-(3,4-Dichloro-phenyl)-2-methyl-7-(3-morpholin-4-yl-propoxy)-1,2,3,4-tetrahydro-isoquinoline] | 3 nM | 27 nM | 28 nM |  | 20 nM | 
8 | COc1cccc(C2CN(C)Cc3cc(OCCCN4CCC(F)CC4)ccc32)c1 (single isomer, unassigned) [Example 45A, 7-[3-(4-Fluoro-piperidin-1-yl)-propoxy]-4-(3-methoxyphenyl)-2-methyl-1,2,3,4-tetrahydro-isoquinoline] | 2 nM | 9 nM | 7 nM | 1.26 nM |  | 
9 | CN1Cc2cc(OCCCN3CCC(F)CC3)ccc2C(c2ccc(OC(F)F)cc2)C1 (stereo not drawn) [Example 50, 4-(4-Difluoromethoxy-phenyl)-7-[3-(4-fluoro-piperidin-1-yl)-propoxy]-2-methyl-1,2,3,4-tetrahydro-isoquinoline] | 8 nM | 3 nM | 3 nM |  | 3.98 nM | 
10 | CN1Cc2cc(OCCCN3CCCCC3)ccc2C(c2cccnc2)C1 (stereo not drawn) [Example 59, 2-Methyl-7-(3-piperidin-1-yl-propoxy)-4-pyridin-3-yl-1,2,3,4-tetrahydro-isoquinoline] | 1 nM | 48 nM | 160 nM | 0.126 nM |  | 
11 | CCN1Cc2cc(OCCCN3CCC(F)CC3)ccc2C(c2ccc(OC)cc2)C1 (stereo not drawn) [Example 146, 2-Ethyl-7-[3-(4-fluoro-piperidin-1-yl)-propoxy]-4-(4-methoxy-phenyl)-1,2,3,4-tetrahydro-isoquinoline] | 3 nM | 12 nM | 12 nM | 2 nM |  | 
12 | COc1ccc(C2CN(C)Cc3cc(OC[C@H]4CN(C(C)C)CCO4)ccc32)cc1 (single isomer, unassigned) [Example 256B, 7-(4-Isopropyl-morpholin-2R-ylmethoxy)-4-(4-methoxy-phenyl)-2-methyl-1,2,3,4-tetrahydro-isoquinoline] | 7 nM | 8 nM | 4 nM | 3.98 nM |  | 
13 | CN1Cc2cc(C#CCCN3CCCCC3)ccc2C(c2ccc(F)cc2)C1 (stereo not drawn) [Example 279, 4-(4-Fluoro-phenyl)-2-methyl-7-(4-piperidin-1-yl-but-1-ynyl)-1,2,3,4-tetrahydro-isoquinoline] | 6 nM | 90 nM | 98 nM | 3.16 nM |  | 
14 | CN1Cc2cc(OCCCN3CCC(F)CC3)ccc2C(c2cc(Cl)ccc2Cl)C1 (stereo not drawn) [Example 55, 4-(2,5-Dichloro-phenyl)-7-[3-(4-fluoro-piperidin-1-yl)-propoxy]-2-methyl-1,2,3,4-tetrahydro-isoquinoline] | 8 nM |  |  |  | 5.01 nM | 209 nM
15 | COc1ccc(C2CN(C3CC3)Cc3cc(OCCCN4CCCCC4)ccc32)cc1 (stereo not drawn) [Example 73, 2-Cyclopropyl-4-(4-methoxy-phenyl)-7-(3-piperidin-1-yl-propoxy)-1,2,3,4-tetrahydro-isoquinoline] | 2 nM | 83 nM |  | 1 nM |  | 

More lines, main results first:

Row | Ki (human H3 receptor [1]) | Ki (Rat SERT; read-out: Rat SERT Ki) | Ki (human SERT) | Kb (human H3 receptor [2]; [3]) | Structure (SMILES) | Kb (human H3 receptor [2]; [4]) | Ki (Rat SERT; Rat SERT Ki (nM))
16 | 0.6 nM | 2 nM | 5 nM | 0.398 nM | COc1ccc(C2CN(C)Cc3cc(OCCCN4[C@H](C)CC[C@H]4C)ccc32)cc1 (stereo partly drawn) [Example 11, 7-[3-((2R,5R)-trans-Dimethyl-pyrrolidin-1-yl)-propoxy]-4-(4-methoxy-phenyl)-2-methyl-1,2,3,4-tetrahydro-isoquinoline] |  | 
17 | 17 nM | 3 nM | 12 nM | 6.31 nM | CN1Cc2cc(OCCCN3CCOCC3)ccc2C(c2ccc(OC(F)F)cc2)C1 (stereo not drawn) [Example 214, 4-(4-Difluoromethoxy-phenyl)-2-methyl-7-(3-morpholin-4-yl-propoxy)-1,2,3,4-tetrahydro-isoquinoline] |  | 
18 | 0.9 nM | 22 nM | 53 nM | 0.1 nM | CN1Cc2cc(OCCCN3CCCCC3)ccc2C(c2ccsc2)C1 (stereo not drawn) [Example 57, 2-Methyl-7-(3-piperidin-1-yl-propoxy)-4-thiophen-3-yl-1,2,3,4-tetrahydro-isoquinoline] |  | 
19 | 3 nM | 5 nM | 4 nM | 1.26 nM | COc1ccc(C2CN(C)Cc3cc(C#CCCN4CCCCC4)ccc32)cc1 (stereo not drawn) [Example 275, 4-(4-Methoxy-phenyl)-2-methyl-7-(4-piperidin-1-yl-but-1-ynyl)-1,2,3,4-tetrahydro-isoquinoline] |  | 
20 | 8 nM | 7 nM |  | 6.31 nM | CCCN1CCC(COc2ccc3c(c2)CN(C)CC3c2ccc(OC)cc2)CC1 (stereo not drawn) [Example 85, 4-(4-Methoxy-phenyl)-2-methyl-7-(1-propyl-piperidin-4-ylmethoxy)-1,2,3,4-tetrahydro-isoquinoline] |  | 
21 | 3 nM | 5 nM | 6 nM | 2.51 nM | COc1ccc(C2CN(C)Cc3cc(OCCCN4CCOCC4)ccc32)cc1 (stereo not drawn) [Example 9, 4-(4-Methoxy-phenyl)-2-methyl-7-(3-morpholin-4-yl-propoxy)-1,2,3,4-tetrahydro-isoquinoline] |  | 
22 | 10 nM | 5 nM |  | 6.31 nM | CSc1ccc(C2CN(C)Cc3cc(OCC4CN(C(C)C)CCO4)ccc32)cc1 (mixture of isomers) [Example 262, 7-(4-Isopropyl-morpholin-2-ylmethoxy)-2-methyl-4-(4-methylsulfanyl-phenyl)-1,2,3,4-tetrahydro-isoquinoline] |  | 
23 | 1 nM | 9 nM |  | 0.794 nM | COc1ccc(C2CNCc3cc(OCCCN4CCCCC4)ccc32)cc1 (stereo not drawn) [Example 69, 4-(4-Methoxy-phenyl)-7-(3-piperidin-1-yl-propoxy)-1,2,3,4-tetrahydro-isoquinoline] |  | 
24 | 11 nM | 6 nM |  | 10 nM | CN1Cc2cc(OCCCN3CCC(F)CC3)ccc2C(c2ccc(Br)cc2)C1 (stereo not drawn) [Example 213, 4-(4-Bromo-phenyl)-7-[3-(4-fluoro-piperidin-1-yl)-propoxy]-2-methyl-1,2,3,4-tetrahydro-isoquinoline] |  | 
25 | 11 nM | 11 nM |  | 7.94 nM | CSc1ccc(C2CN(C)Cc3cc(OCC4CN(C5CC5)CCO4)ccc32)cc1 (mixture of isomers) [Example 263, 7-(4-Cyclopropyl-morpholin-2-ylmethoxy)-2-methyl-4-(4-methylsulfanyl-phenyl)-1,2,3,4-tetrahydro-isoquinoline] |  | 
